Laboratory results from patent US6737383B1, “Herbicidal oxadiazolidines” (priority 1999, dated 2004).

Experiments:
cocklebur = test: Test B pre/postemergence cocklebur; type: in vivo, Xanthium strumarium
Procedure, shortened: (§1)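 Herbicidal effect was estimated by eye on a ten-point control scale after plants spent twelve to sixteen days in a greenhouse following soil or foliar treatment. Foliar sprays targeted plants at one to four leaves; all doses were formulated in a non-phytotoxic solvent with surfactant.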

wild oat = test: Test B pre/postemergence wild oat; type: in vivo, Avena fatua
Procedure, shortened: as §1

rape = test: Test B pre/postemergence rape; type: in vivo, Brassica napus
Procedure, shortened: as §1

smallflower flatsedge = test: Test B flood test smallflower flatsedge; type: in vivo, Cyperus difformis
Procedure, shortened: (§2)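 Each value is a visual injury score relative to controls, with 10 meaning complete control and 0 no effect. Evaluation took place twelve to sixteen days after the 2-leaf-stage plants were treated and kept in the greenhouse.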

bamyardgrass = test: Test B flood test barnyardgrass; type: in vivo, Echinochloa crus-galli
Procedure, shortened: as §2

purple nutsedge = test: Test B pre/postemergence purple nutsedge; type: in vivo, Cyperus rotundus
Procedure, shortened: as §1

pigweed = test: Test B pre/postemergence pigweed; type: in vivo, Amaranthus retroflexus
Procedure, shortened: as §1

duck salad = test: Test B flood test duck salad; type: in vivo, Heteranthera limosa
Procedure, shortened: as §2

blackgrass = test: Test B pre/postemergence blackgrass; type: in vivo, Alopecurus myosuroides
Procedure, shortened: as §1

morningglory = test: Test B pre/postemergence morningglory; type: in vivo, Ipomoea hederacea
Procedure, shortened: as §1

rice = test: Test B flood test rice; type: in vivo, Oryza sativa
Procedure, shortened: as §2

wheat = test: Test B pre/postemergence wheat; type: in vivo, Triticum aestivum
Procedure, shortened: as §1

sugar beet = test: Test B pre/postemergence sugar beet; type: in vivo, Beta vulgaris
Procedure, shortened: as §1

giant foxtail = test: Test B pre/postemergence giant foxtail; type: in vivo, Setaria faberii
Procedure, shortened: as §1

soybean = test: Test B pre/postemergence soybean; type: in vivo, Glycine max
Procedure, shortened: as §1

velvetleaf = test: Test B pre/postemergence velvetleaf; type: in vivo, Abutilon theophrasti
Procedure, shortened: as §1

[1] = Preemergence, Rate 62 g/ha, scale of 0 to 10 where 0 is no effect and 10 is complete control
[2] = Preemergence, Rate 250 g/ha, scale of 0 to 10 where 0 is no effect and 10 is complete control
[3] = Preemergence, Rate 500 g/ha, scale of 0 to 10 where 0 is no effect and 10 is complete control
[4] = Rate 62 g/ha, Postemergence, scale 0 to 10 (0 no effect, 10 complete control)
[5] = Rate 125 g/ha, Postemergence, scale of 0 to 10 where 0 is no effect and 10 is complete control
[6] = Rate 250 g/ha, Postemergence, scale of 0 to 10 where 0 is no effect and 10 is complete control
[7] = Rate 500 g/ha, Postemergence, scale 0 to 10, 0 no effect, 10 complete control
[8] = Rate 62 g/ha, headed Pre-emergence (flood test species), scale 0 to 10 (0 no effect, 10 complete control)
[9] = Rate 125 g/ha, Pre-emergence, flood test species, scale 0 to 10 where 0 is no effect and 10 is complete control
[10] = Rate 250 g/ha, Pre-emergence, flood-test species, scale 0 to 10, 0 is no effect, 10 is complete control
[11] = Rate 500 g/ha, Pre-emergence, flood test species, scale 0 to 10 (0 no effect, 10 complete control)

CC(C)N(C(=O)n1oc(=O)n(Cc2ccccc2-c2ccccc2)c1=O)c1ccc(F)cc1 [Compound 313]
Cocklebur plant response rating (cocklebur; [1]): 0 | Cocklebur plant response rating (0 to 10 scale) (cocklebur; Preemergence, Rate 125 g/ha): 0 | Cocklebur plant response rating (cocklebur; [2]): 0 | Cocklebur plant response rating (cocklebur; [3]): 0 | Cocklebur plant response rating (cocklebur; [4]): 0 | Cocklebur plant response rating (cocklebur; [5]): 0 | Plant response rating, Cocklebur (cocklebur; [6]): 0 | Cocklebur plant response rating (cocklebur; [7]): 0 | Wild oats plant response rating (wild oat; [1]): 0 | Wild oats plant response rating (0 to 10 scale) (wild oat; Preemergence, Rate 125 g/ha): 0 | Wild oats plant response rating (wild oat; [2]): 0 | Wild oats plant response rating (wild oat; [3]): 0 | Wild oats plant response rating (wild oat; [4]): 0 | Wild oats plant response rating (wild oat; [5]): 0 | Plant response rating, Wild oats (wild oat; [6]): 0 | Rape plant response rating (rape; [1]): 0 | Rape plant response rating (0 to 10 scale) (rape; Preemergence, Rate 125 g/ha): 0 | Rape plant response rating (rape; [2]): 0 | Rape plant response rating (rape; [3]): 0 | Rape plant response rating (rape; [4]): 0 | Rape plant response rating (rape; [5]): 0 | Plant response rating, Rape (rape; [6]): 0 | S. Flatsedge plant response rating (smallflower flatsedge; [8]): 0 | S. Flatsedge plant response rating (smallflower flatsedge; [9]): 0 | S. Flatsedge plant response rating (smallflower flatsedge; [10]): 0 | S. Flatsedge plant response rating (smallflower flatsedge; [11]): 0 | Barnyardgrass plant response rating (bamyardgrass; [8]): 0 | Barnyardgrass plant response rating (bamyardgrass; [9]): 0 | Barnyardgrass plant response rating (bamyardgrass; [10]): 0 | Barnyardgrass plant response rating (bamyardgrass; [11]): 0 | Nutsedge plant response rating (purple nutsedge; [1]): 0 | Nutsedge plant response rating (0 to 10 scale) (purple nutsedge; Preemergence, Rate 125 g/ha): 0 | Nutsedge plant response rating (purple nutsedge; [2]): 0 | Nutsedge plant response rating (purple nutsedge; [3]): 0 | Nutsedge plant response rating (purple nutsedge; [4]): 0 | Nutsedge plant response rating (purple nutsedge; [5]): 0 | Plant response rating, Nutsedge (purple nutsedge; [6]): 0 | Redroot pigweed plant response rating (pigweed; [1]): 0 | Redroot pigweed plant response rating (0 to 10 scale) (pigweed; Preemergence, Rate 125 g/ha): 0 | Redroot pigweed plant response rating (pigweed; [2]): 0 | Redroot pigweed plant response rating (pigweed; [3]): 0 | Redroot pigweed plant response rating (pigweed; [4]): 0 | Redroot pigweed plant response rating (pigweed; [5]): 0 | Plant response rating, Redroot pigweed (pigweed; [6]): 2 | Ducksalad plant response rating (duck salad; [8]): 0 | Ducksalad plant response rating (duck salad; [9]): 0 | Ducksalad plant response rating (duck salad; [10]): 0 | Ducksalad plant response rating (duck salad; [11]): 0 | Blackgrass plant response rating (blackgrass; [1]): 0 | Blackgrass plant response rating (0 to 10 scale) (blackgrass; Preemergence, Rate 125 g/ha): 0 | Blackgrass plant response rating (blackgrass; [2]): 0 | Blackgrass plant response rating (blackgrass; [3]): 0 | Blackgrass plant response rating (blackgrass; [4]): 0 | Blackgrass plant response rating (blackgrass; [5]): 0 | Plant response rating, Blackgrass (blackgrass; [6]): 0 | Blackgrass plant response rating (blackgrass; [7]): 0 | Morningglory plant response rating (morningglory; [1]): 0 | Morningglory plant response rating (0 to 10 scale) (morningglory; Preemergence, Rate 125 g/ha): 0 | Morningglory plant response rating (morningglory; [2]): 0 | Morningglory plant response rating (morningglory; [3]): 0 | Morningglory plant response rating (morningglory; [4]): 2 | Morningglory plant response rating (morningglory; [5]): 3 | Plant response rating, Morningglory (morningglory; [6]): 3 | Rice plant response rating (rice; [8]): 0 | Rice plant response rating (rice; [9]): 0 | Rice plant response rating (rice; [10]): 0 | Rice plant response rating (rice; [11]): 0 | Wheat plant response rating (wheat; [1]): 0 | Wheat plant response rating (0 to 10 scale) (wheat; Preemergence, Rate 125 g/ha): 0 | Wheat plant response rating (wheat; [2]): 0 | Wheat plant response rating (wheat; [3]): 0 | Wheat plant response rating (wheat; [4]): 0 | Wheat plant response rating (wheat; [5]): 0 | Plant response rating, Wheat (wheat; [6]): 0 | Sugarbeets plant response rating (sugar beet; [1]): 0 | Sugarbeets plant response rating (0 to 10 scale) (sugar beet; Preemergence, Rate 125 g/ha): 0 | Sugarbeets plant response rating (sugar beet; [2]): 0 | Sugarbeets plant response rating (sugar beet; [3]): 0 | Sugarbeets plant response rating (sugar beet; [4]): 0 | Sugarbeets plant response rating (sugar beet; [5]): 0 | Plant response rating, Sugarbeets (sugar beet; [6]): 0 | Giant foxtail plant response rating (giant foxtail; [1]): 0 | Giant foxtail plant response rating (0 to 10 scale) (giant foxtail; Preemergence, Rate 125 g/ha): 0 | Giant foxtail plant response rating (giant foxtail; [2]): 0 | Giant foxtail plant response rating (giant foxtail; [3]): 0 | Giant foxtail plant response rating (giant foxtail; [4]): 0 | Giant foxtail plant response rating (giant foxtail; [5]): 0 | Plant response rating, Giant foxtail (giant foxtail; [6]): 0 | Soybean plant response rating (soybean; [1]): 0 | Soybean plant response rating (0 to 10 scale) (soybean; Preemergence, Rate 125 g/ha): 0 | Soybean plant response rating (soybean; [2]): 0 | Soybean plant response rating (soybean; [3]): 0 | Soybean plant response rating (soybean; [4]): 1 | Soybean plant response rating (soybean; [5]): 2 | Plant response rating, Soybean (soybean; [6]): 3 | Velvetleaf plant response rating (velvetleaf; [1]): 0 | Velvetleaf plant response rating (0 to 10 scale) (velvetleaf; Preemergence, Rate 125 g/ha): 0 | Velvetleaf plant response rating (velvetleaf; [2]): 0 | Velvetleaf plant response rating (velvetleaf; [3]): 0 | Velvetleaf plant response rating (velvetleaf; [4]): 0 | Velvetleaf plant response rating (velvetleaf; [5]): 0 | Plant response rating, Velvetleaf (velvetleaf; [6]): 0

CC(C)N(C(=O)n1oc(=O)n(Cc2nnsc2Cl)c1=O)c1ccc(F)cc1F [Compound 320]
Cocklebur plant response rating (cocklebur; [1]): 0 | Cocklebur plant response rating (0 to 10 scale) (cocklebur; Preemergence, Rate 125 g/ha): 0 | Cocklebur plant response rating (cocklebur; [3]): 0 | Cocklebur plant response rating (cocklebur; [4]): 0 | Cocklebur plant response rating (cocklebur; [5]): 0 | Plant response rating, Cocklebur (cocklebur; [6]): 0 | Cocklebur plant response rating (cocklebur; [7]): 0 | Wild oats plant response rating (wild oat; [1]): 0 | Wild oats plant response rating (0 to 10 scale) (wild oat; Preemergence, Rate 125 g/ha): 0 | Wild oats plant response rating (wild oat; [2]): 0 | Wild oats plant response rating (wild oat; [3]): 0 | Wild oats plant response rating (wild oat; [4]): 0 | Wild oats plant response rating (wild oat; [5]): 0 | Plant response rating, Wild oats (wild oat; [6]): 0 | Rape plant response rating (rape; [1]): 0 | Rape plant response rating (0 to 10 scale) (rape; Preemergence, Rate 125 g/ha): 0 | Rape plant response rating (rape; [2]): 0 | Rape plant response rating (rape; [3]): 0 | Rape plant response rating (rape; [4]): 0 | Rape plant response rating (rape; [5]): 3 | Plant response rating, Rape (rape; [6]): 3 | S. Flatsedge plant response rating (smallflower flatsedge; [8]): 0 | S. Flatsedge plant response rating (smallflower flatsedge; [9]): 0 | S. Flatsedge plant response rating (smallflower flatsedge; [10]): 0 | S. Flatsedge plant response rating (smallflower flatsedge; [11]): 0 | Barnyardgrass plant response rating (bamyardgrass; [8]): 0 | Barnyardgrass plant response rating (bamyardgrass; [9]): 0 | Barnyardgrass plant response rating (bamyardgrass; [10]): 0 | Barnyardgrass plant response rating (bamyardgrass; [11]): 0 | Nutsedge plant response rating (purple nutsedge; [1]): 0 | Nutsedge plant response rating (0 to 10 scale) (purple nutsedge; Preemergence, Rate 125 g/ha): 0 | Nutsedge plant response rating (purple nutsedge; [2]): 0 | Nutsedge plant response rating (purple nutsedge; [3]): 0 | Nutsedge plant response rating (purple nutsedge; [4]): 0 | Nutsedge plant response rating (purple nutsedge; [5]): 0 | Plant response rating, Nutsedge (purple nutsedge; [6]): 0 | Redroot pigweed plant response rating (pigweed; [1]): 0 | Redroot pigweed plant response rating (0 to 10 scale) (pigweed; Preemergence, Rate 125 g/ha): 0 | Redroot pigweed plant response rating (pigweed; [2]): 0 | Redroot pigweed plant response rating (pigweed; [3]): 0 | Redroot pigweed plant response rating (pigweed; [4]): 3 | Redroot pigweed plant response rating (pigweed; [5]): 6 | Plant response rating, Redroot pigweed (pigweed; [6]): 6 | Ducksalad plant response rating (duck salad; [8]): 0 | Ducksalad plant response rating (duck salad; [9]): 0 | Ducksalad plant response rating (duck salad; [10]): 0 | Ducksalad plant response rating (duck salad; [11]): 0 | Blackgrass plant response rating (blackgrass; [1]): 0 | Blackgrass plant response rating (0 to 10 scale) (blackgrass; Preemergence, Rate 125 g/ha): 2 | Blackgrass plant response rating (blackgrass; [2]): 5 | Blackgrass plant response rating (blackgrass; [3]): 6 | Blackgrass plant response rating (blackgrass; [4]): 0 | Blackgrass plant response rating (blackgrass; [5]): 0 | Plant response rating, Blackgrass (blackgrass; [6]): 0 | Blackgrass plant response rating (blackgrass; [7]): 0 | Morningglory plant response rating (morningglory; [1]): 0 | Morningglory plant response rating (0 to 10 scale) (morningglory; Preemergence, Rate 125 g/ha): 0 | Morningglory plant response rating (morningglory; [2]): 0 | Morningglory plant response rating (morningglory; [3]): 0 | Morningglory plant response rating (morningglory; [4]): 1 | Morningglory plant response rating (morningglory; [5]): 1 | Plant response rating, Morningglory (morningglory; [6]): 3 | Rice plant response rating (rice; [8]): 0 | Rice plant response rating (rice; [9]): 0 | Rice plant response rating (rice; [10]): 0 | Rice plant response rating (rice; [11]): 0 | Wheat plant response rating (wheat; [1]): 0 | Wheat plant response rating (0 to 10 scale) (wheat; Preemergence, Rate 125 g/ha): 0 | Wheat plant response rating (wheat; [2]): 0 | Wheat plant response rating (wheat; [3]): 0 | Wheat plant response rating (wheat; [4]): 0 | Wheat plant response rating (wheat; [5]): 0 | Plant response rating, Wheat (wheat; [6]): 0 | Sugarbeets plant response rating (sugar beet; [1]): 0 | Sugarbeets plant response rating (0 to 10 scale) (sugar beet; Preemergence, Rate 125 g/ha): 0 | Sugarbeets plant response rating (sugar beet; [2]): 0 | Sugarbeets plant response rating (sugar beet; [3]): 0 | Sugarbeets plant response rating (sugar beet; [4]): 0 | Sugarbeets plant response rating (sugar beet; [5]): 2 | Plant response rating, Sugarbeets (sugar beet; [6]): 2 | Giant foxtail plant response rating (giant foxtail; [1]): 0 | Giant foxtail plant response rating (giant foxtail; [2]): 6 | Giant foxtail plant response rating (giant foxtail; [3]): 7 | Giant foxtail plant response rating (giant foxtail; [4]): 0 | Giant foxtail plant response rating (giant foxtail; [5]): 0 | Plant response rating, Giant foxtail (giant foxtail; [6]): 0 | Soybean plant response rating (soybean; [1]): 0 | Soybean plant response rating (0 to 10 scale) (soybean; Preemergence, Rate 125 g/ha): 0 | Soybean plant response rating (soybean; [2]): 0 | Soybean plant response rating (soybean; [3]): 0 | Soybean plant response rating (soybean; [4]): 2 | Soybean plant response rating (soybean; [5]): 3 | Plant response rating, Soybean (soybean; [6]): 3 | Velvetleaf plant response rating (velvetleaf; [1]): 0 | Velvetleaf plant response rating (0 to 10 scale) (velvetleaf; Preemergence, Rate 125 g/ha): 0 | Velvetleaf plant response rating (velvetleaf; [2]): 0 | Velvetleaf plant response rating (velvetleaf; [3]): 0 | Velvetleaf plant response rating (velvetleaf; [4]): 0 | Velvetleaf plant response rating (velvetleaf; [5]): 0 | Plant response rating, Velvetleaf (velvetleaf; [6]): 0
